Laboratory results reported in US20230372276A1, “METHODS FOR DELIVERING MEDIUM CHAIN TRIGLYCERIDES WITH CONTROLLED PHARMACOKINETIC, SAFETY AND TOLERABILITY PROFILES” (Cerecin Inc., priority 2020, published 2023).

Tests used:
[1] = both, human, in vivo
Experimental: The population for this study was 12 healthy older males and females age 50 and above.
Following a Screening period of up to 28 days, eligible subjects arrived at the clinical research unit (CRU) for Check-in on Day −1. On Day 1, subjects had predose samples of plasma serum taken for PK. […] Dose 2 was administered 30 minutes after completion of a standard lunch.
Subjects were to gradually increase the dose according to the titration scheme, aiming to reach a dose of 75 g twice a day.
On Days 15 and 21, subjects had predose and postdose (1, 1.5, and 2 hours) samples of plasma taken for PK. On Day 24, subjects had predose samples of plasma taken for PK. After the first dose on Day 24, 24-hour PK sampling was done to measure ketone body levels (βHB, AcAc). Check-out was on Day 25 following completion of scheduled assessments.
Immediately after dosing, the remaining treatment in the container was rinsed with 60 mL of water and administered to the subject for a total of approximately 300 mL of dosing liquid consumed for each dosing.
Cmax and Tmax were calculated for total ketones, βHB, and AcAc for the Day 15 and Day 21 PK sampling.
The plasma concentrations of βHB, AcAc, and total ketones were listed and summarized by study day and time point for all subjects in the PK Population. Mean and individual concentration-time profiles for Days 15, 21, and 24 were presented on linear and semi-log scales. Linear mean plots were presented with and without SD. Plasma βHB, AcAc and total ketones PK parameters were listed and summarized by study day and dose for all subjects in the PK Population. No inferential statistics were performed on the PK data.

[2] = Ethnicity analysis of total ketone exposure, Chinese vs Caucasian (Study 2 parts combined); type: in vivo, human (healthy young male Caucasian and Asian volunteers); conditions: healthy participants
Experimental: The present example investigates the pharmacokinetics, safety and tolerability of tricaprilin in healthy young male Caucasian and Asian volunteers to understand and elucidate any differences between the two populations and any identify any ethnic sensitivities. In this example, data from several studies were analyzed to evaluate any ethnicity differences in safety and tolerability of tricaprilin. The analyzed studies included Caucasian and Asian (Chinese) subjects and several analyses were conducted to compare the effects in Caucasians vs Asian. Ethnic Chinese participants were defined as all four grandparents being Chinese. The level of total ketones were quantitated using a validated LC-MS/MS bioanalytical assay.
Methods: Study 1 was a food effect study of a spray dried formulation of tricaprilin (AC-SD-01), conducted in healthy young males. […] Both of these studies included Caucasian and Asian (Chinese) subjects and several analyses were conducted to compare the effects in Caucasians vs Chinese. To explore whether ethnicity affects total ketone body exposure after tricaprilin administration, the pharmacokinetic parameters AUC0-t and Cmax from Study 2 were examined and grouped by an individual's ethnicity (Chinese or Caucasian).

CCCCCCCC(=O)OCC(COC(=O)CCCCCCC)OC(=O)CCCCCCC [tricaprilin]
increase of geometric mean Cmax for AcAc [1]: 2.3 fold | increase of geometric mean Cmax for total ketones [1]: 2.7 fold | increase of geometric mean Cmax for βHB [1]: 2.9 fold | Exposure to total ketones, ethnic Chinese compared to Caucasians [2]: no different
